Laboratory results taken from PMC9260506, “Identification of Highly Cross-Reactive Mimotopes for a Public T Cell Response in Murine Melanoma” (Frontiers in Immunology, 2022).

Key:
[1] = test system: 7PPG4-transduced 58^-/- T cells; assay: T cell activation, peptide-loaded DC2.4 co-culture, IL-2 ELISA (7PPG4); assay type: cell-based, murine; conditions: DC2.4 cells loaded with various peptide concentrations 2-3 h, 24 h co-culture
Protocol: (§1) T cell line generation: For creation of T cell lines, TCR alpha chain was linked to TCR beta chain by a P2A sequence, followed by EGFP fluorescent protein sequence, in the MP71 retroviral vector. 80% confluent HEK293-T cells were transfected with 2 μg of TCR plasmid and 1 μg pCL-Eco helper plasmid with 6 μg (3× DNA mass) PEI (Santa Cruz Biotech) to create retrovirus. 2 days later, the supernatant was then used to transduce CD8^+ 58^-/^- cells with 0.8 μg/mL polybrene (Santa Cruz Biotech). Cells were spinfected at 1000×g and 32°C for 1.5 hours. 2 days later, transduction was assessed by expression of EGFP and by staining with an antibody against murine TCR β chain. If necessary, cells were sorted on EGFP on a FACSAria (BD) to obtain a >95% transduced population.
(§2) DC co-culture: 25,000 DC2.4 cells per well were incubated with various concentrations of peptide in 100 μL RPMI complete media for 2-3 hours before the addition of T cells. 25,000 T cells per well were added in 100 μL RPMI complete media in 96 well plates.
(§3) After 24 hours, plates were spun down at 500×g for 5 minutes, and 2×100 μL samples of supernatant were saved and frozen at -80°C. T cell activation was assessed using mouse IL-2 ELISA kits (Invitrogen), with samples diluted 1:2 - 1:20 for comparison to the standard curve. Absorbance values were measured with a Tecan Infinite m200 Pro plate reader.

[2] = test system: 7PPG2-transduced 58^-/- T cells; assay: T cell activation, peptide-loaded DC2.4 co-culture, IL-2 ELISA (7PPG2); assay type: cell-based, murine; conditions: DC2.4 cells loaded with various peptide concentrations 2-3 h, 24 h co-culture
Protocol: as §1, §2, §3

[3] = biological target: 7PPG4 TCR, recombinant soluble (mouse) (UniProt P01849); assay: SPR; conditions: peptide-MHC
[4] = biological target: 7PPG2 TCR, recombinant soluble (mouse) (UniProt P01849); assay: SPR; conditions: peptide-MHC
7PPG4 TCR = assay: Steady-state surface plasmon resonance, pMHC on immobilized 7PPG4 TCR; assay type: binding, mouse; conditions: Figure 5C
From the text: Recombinant soluble TCRs used for yeast library selections and surface plasmon resonance experiments were produced using a baculovirus expression system in Hi5 insect cells. TCR alpha chain extracellular domain sequences were cloned into pAcGP67a vector containing a 3C protease site ([…]) followed by an acidic leucine zipper, AviTag biotinylation site ([…]), and poly-histidine tag (6×His). TCR beta chain extracellular domain sequences were cloned into pAcGP67a vector containing a 3C site followed by a basic leucine zipper and poly-histidine tag. 2 μg of each plasmid was transfected into SF9 insect cells with BestBac 2.0 linearized baculovirus DNA (Expression Systems) using Cellfectin II reagent (Invitrogen). SF9s were then infected with 1:1000 primary transfection supernatant to amplify the virus. Titration of alpha and beta chain viruses was performed to identify the optimal ratio of the two viruses for heterodimer formation. Protein was then produced by large scale infection of Hi5 cells as previously described ([10]). Briefly, secreted protein was purified using HisPur Ni-NTA resin (Thermo) for immobilized metal affinity chromatography (IMAC) and biotinylated overnight at 4°C using biotin (Avidity), ATP, and BirA ligase. […] Biotinylation efficiency was assessed by adding streptavidin (ThermoFisher) to ~2 ug of protein and running an SDS-PAGE gel. […]

CD8^+ T cells = assay: Intracellular cytokine staining of peripheral blood after vaccination; assay type: in vivo, C57BL/6 mice; conditions: for CD8^+ T cell reactivity to p15E stimulation (ICS): Figure 7C
From the text: MSA and TTR long peptide fusions were produced in house by the Wittrup lab as previously described ([23]). Long peptide-amphiphile fusion vaccines were obtained from Northwestern University Peptide Synthesis Core (p15E and mimotopes) or produced in house by the Irvine lab as previously described (OVA amph) ([16], [22]). Lipo-CpG was produced in house by the Irvine lab as previously described ([16], [22]). […] Mice were primed and then boosted at 2 and 4 weeks following prime (n=5 per group).
One week following each vaccine boost, blood samples were drawn retro-orbitally from each mouse. 50-80 μL was used per well for stimulation with peptide, and excess blood from each group was pooled and used for a positive and negative control well per group. Red blood cells were lysed with ACK lysis buffer (Thermo), and then cells were washed once with FACS buffer. In 100 μL/well RPMI complete media, sample wells were stimulated with 10 μg/mL peptide (p15E, 7PPG2-mim6, or 7PPG4-mim2), and positive control wells were stimulated with 10 ng/mL PMA and 10 μg/mL ionomycin. Cells were stimulated for two hours before 1 uL/well brefeldin A (BD GolgiPlug) was added, and then cells were incubated for an additional four hours. Cells were washed twice with cold PBS and then stained with Zombie Aqua 1:1000 and Fc block 1:100 in 100 μL/well PBS for 15 minutes at room temperature. Cells were then stained with CD8 APC 1:100 in 100 μL/well FACS buffer for 20 minutes at room temperature. Cells were fixed and permeabilized using 100 μL/well of CytoFix/CytoPerm solution (BD) for 20 minutes at 4°C. Following two washes with Perm/Wash buffer (BD), cells were stained with IFN-γ PE and TNF-α AF488 1:75 each in 50 μL/well Perm/Wash buffer for 30 minutes at 4°C. Following two washes with FACS buffer, samples were run on an LSR II (BD) or Cytoflex (Beckman Coulter) and data analyzed in FlowJo v10. Outliers were identified using the ROUT method with Q = 1% (GraphPad Prism 9).

p15E-pulsed splenocytes = assay: In vivo killing assay of peptide-pulsed donor splenocytes; parameters: species or system C57BL/6 mice; conditions: day 36 spleens, 24 h after i.v. injection of about 1:1 CFSE-dyed p15E-pulsed and violet-dyed OVA-pulsed splenocytes; amphiphile vaccines days 0, 14, 28; N=3 mice/group
Protocol: (§4) MSA and TTR long peptide fusions were produced in house by the Wittrup lab as previously described ([23]). Long peptide-amphiphile fusion vaccines were obtained from Northwestern University Peptide Synthesis Core (p15E and mimotopes) or produced in house by the Irvine lab as previously described (OVA amph) ([16], [22]). Lipo-CpG was produced in house by the Irvine lab as previously described ([16], [22]). 5 nmol of vaccine and 1.24 nmol of lipo-CpG per injection were used in a volume of 100 μL PBS, sterile filtered, and injected subcutaneously at the tail base, 50 μL per side, using 31G insulin syringes. Mice were primed and then boosted at 2 and 4 weeks following prime (n=5 per group).
Experimental mice were vaccinated as described above. A separate group of age-matched female C57BL/6 donor mice were euthanized and spleens removed. In a sterile hood, single cell suspensions were created by mashing spleens through 70 μm mesh filters. Red blood cells were lysed using ACK lysis buffer (Thermo), and cells were washed twice with PBS. […] 24 hours later, experimental mice were euthanized and splenocytes analyzed to compare ratios of CFSE-dyed to Violet-dyed cells. Samples were run on a Cytoflex and data analyzed in FlowJo v10.

[5] = biological target: p15E peptide presented by H-2K^b, refolded pMHC (mouse | human | murine leukemia virus); assay: SPR
B16F10 melanoma cells = assay: Prophylactic vaccination and B16F10 tumor challenge; assay type: in vivo, C57BL/6 mice
Protocol: as §4
Two weeks after the second vaccine boost, 10^5 B16F10 cells in 100 μL PBS were injected subcutaneously on the right flank using 29G insulin syringes. Tumor areas were calculated by multiplying length and width taken by caliper measurement every other day beginning three days post-tumor inoculation. Mice were euthanized when tumor area exceeded 100 mm^2.

SIYRYYGL [2C TCR cognate antigen, control peptide]
T cell activation (IL-2 secretion) [1]: no activation | T cell activation (IL-2 secretion) [2]: no activation

7PPG2-mim6 mimotope () presented by H-2K^b, refolded pMHC (from UniProt P61769 21-119)
Kd [3]: > 100 µM | Kd [4]: 19 µM

VSPWFNTL [7PPG2-mim6, p15E mimotope identified from yeast display pMHC library selection with 7PPG2 TCR]
Kd (7PPG4 TCR; mimotope or p15E peptide displayed by H-2K^b as analyte, immobilized TCR, 25°C, steady state): > 100 µM | CD8^+ T cell reactivity to 7PPG4-mim2 stimulation (ICS) (CD8^+ T cells; amphiphile vaccine + lipo-CpG, days 21 and 35, Supplementary Figure 7B): minimal reactivity to 7PPG4-mim2 | T cell activation (IL-2 secretion) [2]: much more potently than p15E

SIINFEKL [OVA]
Fraction of p15E-pulsed cells remaining (p15E-pulsed splenocytes): high fraction of p15E-pulsed cells remaining | CD8^+ T cell reactivity to OVA (ICS) (CD8^+ T cells; killing-assay study, day 35, OVA amphiphile vaccine day 0, boosts days 14 and 28, N=3 mice/group, Supplementary Figure 6B): 20%

7PPG3 TCR, recombinant soluble (from UniProt P01849)
Kd [5]: 20 µM

KSPWFTTL [p15E, previously identified MLVenv peptide presented by the class I MHC H-2K^b]
Fraction of p15E-pulsed cells remaining (p15E-pulsed splenocytes): little difference in fraction of p15E-pulsed cells compared to the control group | Survival after tumor challenge (B16F10 melanoma cells; first experiment, 1×10^5 B16F10 cells six weeks after prime, amphiphile vaccines, euthanized at tumor area >100 mm^2, N=5, Figure 7F): identical survival curves | CD8^+ T cell reactivity to p15E stimulation (ICS) (CD8^+ T cells; days 21 and 35, 5 nmol amphiphile vaccine + lipo-CpG, compared with adjuvant-only control): did not show any significant reactivity compared to the control group | T cell activation (IL-2 secretion) [1]: activated in a dose-dependent manner | T cell activation (IL-2 secretion) [2]: activated in a dose-dependent manner

7PPG4-mim2 mimotope () presented by H-2K^b, refolded pMHC (from UniProt P61769 21-119)
Kd [4]: 42 µM

7ELG1 TCR, recombinant soluble (from UniProt P01849)
Kd [5]: 39 µM

KSPWFITL [7PPG4-mim2, p15E mimotope identified from yeast display pMHC library selection with 7PPG4 TCR]
affinity for 7PPG4 relative to p15E (7PPG4 TCR; SPR, 5 μM compared to 26 μM): five-fold higher affinity | Autoreactivity in vivo (B16F10 melanoma cells; all in vivo studies with the amphiphile vaccine): did not show evidence of deleterious autoreactivity | CD8^+ T cell reactivity to 7PPG2-mim6 stimulation (ICS) (CD8^+ T cells; amphiphile vaccine + lipo-CpG, days 21 and 35, Supplementary Figure 7A): some cross reactivity to 7PPG2-mim6 stimulation | CD8^+ T cells reacting to 7PPG4-mim2 stimulation (ICS) (CD8^+ T cells; day 21, 5 nmol amphiphile vaccine + lipo-CpG, Supplementary Figure 7B, N=5): 40 % of CD8^+ T cells | CD8^+ T cell reactivity to p15E stimulation (ICS) (CD8^+ T cells; day 35, 5 nmol amphiphile vaccine + 1.24 nmol lipo-CpG, boosts days 14 and 28, N=5): 40% | T cell activation (IL-2 secretion) [1]: much more potently than p15E

7PPG2 TCR, recombinant soluble (from UniProt P01849)
Kd [5]: 23 µM
